This is an account of results in patent publication US8674107B2, “Crystal of anti-bacterial compound” (priority 2010, dated 2014).

Where a name gives a salt, the structure may show the parent alone.

Holding throughout (assay type): physicochemical
Data set [1] is described as follows: Evaluation of moisture absorption and desorption properties (microbalance). The note with it: 25° C.; for moisture absorption and desorption patterns: 10-90% RH; for change in weight (moisture absorption and desorption properties): measurement range 10-90% RH. How it is done:
Of the various samples prepared in Example 1, the monohydrochloride dihydrate, monohydrochloride monohydrate, and sulfate were separately placed in quartz holders and examined for their moisture absorption and desorption behaviors using a microbalance under the following measurement conditions:
Measurement conditions for moisture absorption and desorption behavior (sample volume: approximately 10 mg, measurement range: 10-90% RH, measurement temperature: 25° C., variable: within 0.03%, varying length of time: 10 minutes, apparatus: atmospheric pressure-type automatic water vapor sorption instrument manufactured by VTI Corp.)

Data set [2] is described as follows: Evaluation of chemical stability (storage under dry-heat or wet-heat, HPLC). The conditions noted are these: 2 weeks. How it is done: Approximately 2 mg each of various samples prepared in Example 1 was weighed into an aluminum pan for thermal analysis and stored under dry-heat (60° C., 0% RH) or wet-heat (40° C., 75% RH) conditions. One and two weeks later, each sample was collected, and the change in weight was determined. Then, the whole amount was dissolved in 20 mL of an eluent and subjected to HPLC analysis.

A short description of data set [3]: Evaluation of solubility in test solutions (HPLC). The conditions noted are these: for Concentration: 37° C., total of 30 minutes. The method, then:
The monohydrochloride dihydrate prepared in Example 1 and the free form (anhydrous form) were used in the following evaluation of solubility: an appropriate amount of each sample was added to 2 mL each of the test solutions (water, the JP 1st fluid for the disintegration test (JP1), and the JP 2nd fluid for the disintegration test (JP2)), fasted state simulated intestinal fluid (FaSSIF), and fed state simulated intestinal fluid (FeSSIF), and incubated in a thermobath of 37° C. Each solution was shaken in a vortex mixer for 30 seconds every 5 minutes (for a total of 30 minutes). Then, the supernatant was filtered through a membrane filter (pore size: 0.45 μm). After appropriate dilution with an eluent, the diluted solution was subjected to HPLC analysis to calculate concentration.
Measurement conditions for HPLC;
Column: Waters Symmetry C18 3.5 um, 4.6×100 mm
Column temperature: 40° C.
Mobile phase: 50 mM KH2PO4-K2HPO4 (pH 7.0)/MeCN=8:2

[4] abbreviates: listed as monohydrochloride dihydrate of compound A, monohydrochloride dihydrate.

As usually defined, the solubility is the dissolved amount per volume that the medium holds. A high value points to much dissolved substance.

On to `Cc1c(N2C[C@]3(N)CCC[C@]3(F)C2)c(F)cc2c(=O)c(C(=O)O)cn([C@@H]3C[C@@H]3F)c12` [sulfate of compound A], for which, in data set [1], the “moisture absorption and desorption patterns” value is recorded as “well consistent”; the “change in weight (moisture absorption and desorption properties)” value is at most 2%. The “change in weight (moisture absorption and desorption behaviors)” value in data set [1] (relative humidity of 40% to 60%) is at most 2%.

Regarding `Cc1c(N2C[C@]3(N)CCC[C@]3(F)C2)c(F)cc2c(=O)c(C(=O)O)cn([C@@H]3C[C@@H]3F)c12` [Free form (anhydride), 7-[(1R,5S)-1-amino-5-fluoro-3-azabicyclo[3.3.0]octan-3-yl]-6-fluoro-1-[(1R,2S)-2-fluorocyclopropan-1-yl]-1,4-dihydro-8-methyl-4-oxoquinoline-3-carboxylic acid], the “Increase in related substances (%)” value in data set [2] (40° C./75% RH) and in data set [2] (60° C./0% RH) was 0.01% in each case. Moreover, the figures for the Concentration in data set [3] (Fasted state simulated intestinal fluid (FaSSIF)), in data set [3] (JP 2nd fluid for dissolution test) and in data set [3] (Water) were 319 µg/mL, 352 µg/mL and 280 µg/mL, respectively.

Take `Cc1c(N2C[C@]3(N)CCC[C@]3(F)C2)c(F)cc2c(=O)c(C(=O)O)cn([C@@H]3C[C@@H]3F)c12` [Monohydrochloride dihydrate, 7-[(1R,5S)-1-amino-5-fluoro-3-azabicyclo[3.3.0]octan-3-yl]-6-fluoro-1-[(1R,2S)-2-fluorocyclopropan-1-yl]-1,4-dihydro-8-methyl-4-oxoquinoline-3-carboxylic acid monohydrochloride dihydrate]: the “Increase in related substances (%)” value amounted to 0.02% in data set [2] (60° C./0% RH, listed as monohydrochloride dihydrate of compound A, monohydrochloride dihydrate) and 0.02% in data set [2] (60° C./0% RH, monohydrochloride dihydrate). The compound further registered a solubility at 30 min in data set [3] (37 °C, thermodynamic from solid, in each of water, JP 1st fluid, JP 2nd fluid, FaSSIF and FeSSIF) of at least 2000 µg/mL. Moreover, the Concentration in data set [3] (Fasted state simulated intestinal fluid (FaSSIF), monohydrochloride dihydrate) is over 2000 µg/mL; in data set [3] (Fed state simulated intestinal fluid (FeSSIF)) it was over 2000 µg/mL; in data set [3] (JP 1st fluid for dissolution test), over 2000 µg/mL; in data set [3] (JP 2nd fluid for dissolution test, monohydrochloride dihydrate) it was over 2000 µg/mL; in data set [3] (Water, monohydrochloride dihydrate), over 2000 µg/mL. Further, the “moisture absorption and desorption patterns” value in data set [1] (setting [4]) and in data set [1] (monohydrochloride dihydrate) was “well consistent” throughout. Further, the “change in weight (moisture absorption and desorption properties)” value in data set [1] (setting [4]) is recorded as at most 2%.

On to `Cc1c(N2C[C@]3(N)CCC[C@]3(F)C2)c(F)cc2c(=O)c(C(=O)O)cn([C@@H]3C[C@@H]3F)c12` [monohydrochloride monohydrate], for which, in data set [1] (monohydrate), the “moisture absorption and desorption patterns” value was “substantially the same”; the “change in weight (moisture absorption and desorption properties)” value is at most 1%.
